Tested on: Tat-hybrid reporter cell lines (HeLa)
Assay: MTT cell viability run in parallel with the Tat-hybrid assay
Assay type: cell-based
Settings: Table 6; at 50,000 nM
Method: (§1) Cells were counted and plated into white 384-well or 96-well cell-culture treated assay plates and compounds were added. After 48 hours, the cells were prepared for luminescence assays that were performed on a plate reader (Tecan Evolution or MD Analyst). The cytotoxicity of each compound was determined in parallel via MTT-based cell viability assays.
as §1, with “Tat hybrid reporter assay. […] Previously characterized thienopyridines and diaminoacridine were used as controls. Cells” for “Cells”, “384-well” for “384-well or 96-well”, “lumincescence” for “luminescence”, “assays. […]” for “assays.”

Structure (SMILES)	Tat hybrid cell viability at 50,000 nM
C=CCN(CC=C)C(=O)c1sc2nc(C)c(Cl)c(C)c2c1N	X (X = >60%)
COc1ccc(C(=O)c2sc3nc(C)c(C)c(C)c3c2N)cc1OC	X (X = >60%)
Cc1cc(C)c2c(N)c(C(=O)NCC(=O)O)sc2n1	X (X = >60%)
NC(=O)c1sc2nc(C34CC5CC(CC(C5)C3)C4)ccc2c1N	X (X = >60%)
NC(=O)c1sc2nc3c(cc2c1N)C(=O)CCC3	X (X = >60%)
NC(=O)c1sc2[nH]c(=O)c(C(=O)O)cc2c1N	X (X = >60%)
NC(=O)c1sc2nc(-c3ccc4c(c3)OCCO4)cc(C(F)(F)F)c2c1N	X (X = >60%)
Cc1nc2sc(C(=O)c3ccccc3)c(N)c2c(C)c1C	X (X = >60%)
NC(=O)c1sc2nc(-c3ccccc3)ccc2c1N	X (X = >60%)
CN1CCc2nc3sc(C(N)=O)c(N)c3cc2C1	X (X = >60%)
Cc1cc(NC(=O)c2sc3nc(C)c(C)c(C)c3c2N)no1	X (X = >60%)
NC(=O)c1sc2nc3c(cc2c1N)CCCC3	X (X = >60%)
Cc1nc2sc(C(=O)c3ccc(Cl)cc3)c(N)c2c(C)c1C	X (X = >60%)
COCc1cc(C)nc2sc(C(=O)Nc3ccc(C(C)=O)cc3)c(N)c12	X (X = >60%)
CN(C)c1ccnc2sc(C(=O)NCc3ccccc3)c(N)c12	Y (Y = 30-60%)
NC(=O)c1sc2nc(C3CC3)cc(-c3ccc(Cl)cc3)c2c1N	Y (Y = 30-60%)
NC(=O)c1sc2nc(-c3ccccc3)cc(-c3ccccc3)c2c1N	Tat hybrid % inhibition at 5,000 nM: Z Tat hybrid cell viability at 50,000 nM: Z U1% inhibition at 10,000 nm: Z (Z = <30%)
Cc1ccc(-c2cc(-c3ccc(Cl)cc3)c3c(N)c(C(N)=O)sc3n2)cc1	Tat hybrid % inhibition at 5,000 nM: Z Tat hybrid cell viability at 50,000 nM: Z U1% inhibition at 10,000 nm: Z (Z = <30%)
Cc1ccc2nc3sc(C(N)=O)c(N)c3cc2c1	X (X = >60%)
CCc1ccc2nc3sc(C(N)=O)c(N)c3cc2c1	X (X = >60%)
COc1ccc(-c2c(C(=O)Nc3ccccc3)c(C)nc3sc(C(N)=O)c(N)c23)cc1	X (X = >60%)
Cc1cc(C)c2cc3c(N)c(C(N)=O)sc3nc2c1	Z (Z = <30%)
NC(=O)c1sc2nc(C(F)F)cc(-c3ccco3)c2c1N	Y (Y = 30-60%)

Structure (SMILES)	Tat hybrid cell viability at 50,000 nM
NC(=O)c1sc2nc3c(cc2c1N)CCCCC3	X (X = >60%)
NC(=O)c1sc2nc3c(c(-c4cccnc4)c2c1N)CCC3	Z (Z = <30%)
Cc1cc(C)c2nc3sc(C(N)=O)c(N)c3cc2c1	X (X = >60%)
COc1ccc2cc3c(N)c(C(N)=O)sc3nc2c1	Y (Y = 30-60%)
COc1ccc2nc3sc(C(N)=O)c(N)c3cc2c1	X (X = >60%)
COc1cc2cc3c(N)c(C(N)=O)sc3nc2cc1OC	X (X = >60%)
CCc1nc2sc(C(N)=O)c(N)c2cc1C	X (X = >60%)
CCN(CC)C(=O)c1sc2nc(C)cc(C)c2c1N	Y (Y = 30-60%)
NC(=O)c1sc2nc3c(cc2c1N)CCC3	X (X = >60%)
N#Cc1cc2c(N)c(C(N)=O)sc2nc1N	Z (Z = <30%)
Cc1cc2cc3c(N)c(C(N)=O)sc3nc2cc1C	X (X = >60%)
Cc1ccc2cc3c(N)c(C(N)=O)sc3nc2c1C	X (X = >60%)
Cc1ccc(-c2cc(C(F)F)nc3sc(C(N)=O)c(N)c23)cc1	X (X = >60%)
COc1ccc(NC(=O)c2sc3nc(N)c(C#N)c(-c4cccs4)c3c2N)cc1	X (X = >60%)
CCOc1ccc2nc3sc(C(N)=O)c(N)c3cc2c1	X (X = >60%)
COC(=O)c1sc2nc(C)c(C)c(C)c2c1N	Y (Y = 30-60%)
CC(=O)C1=C(C)Nc2sc(C(N)=O)c(N)c2C1c1cccnc1 (stereo not drawn)	X (X = >60%)
COCc1cc(C)nc2sc(C(=O)OC)c(N)c12	X (X = >60%)
Cc1cc(C(F)F)nc2sc(C(N)=O)c(N)c12	X (X = >60%)
Cc1cc(C(F)(F)F)nc2sc(C(N)=O)c(N)c12	Y (Y = 30-60%)
CC(C)c1ccc2nc3sc(C(N)=O)c(N)c3cc2c1	X (X = >60%)
NC(=O)c1sc2nc(-c3cccs3)cc(C(F)(F)F)c2c1N	Y (Y = 30-60%)
NC(=O)c1sc2nc(C3CC3)cc(-c3ccccc3)c2c1N	X (X = >60%)

Structure (SMILES)	Tat hybrid cell viability at 50,000 nM
COc1ccc(-c2c(C#N)c(N)nc3sc(C(N)=O)c(N)c23)cc1OC	Y (Y = 30-60%)
COc1ccc(-c2c3c(nc4sc(C(N)=O)c(N)c24)CCCC3)cc1	X (X = >60%)
NC(=O)c1sc2nc(-c3ccccc3)cc(C(F)(F)F)c2c1N	X (X = >60%)
N#Cc1c(N)nc2sc(C(N)=O)c(N)c2c1-c1ccc(Br)cc1	X (X = >60%)
COCc1cc(C)c2c(N)c(C(N)=O)sc2n1	Y (Y = 30-60%)
N#Cc1c(N)nc2sc(C(=O)Nc3ccc(Cl)cc3)c(N)c2c1-c1cccs1	X (X = >60%)
COc1ccc(-c2cc(-c3ccc(Cl)cc3)c3c(N)c(C(N)=O)sc3n2)cc1	X (X = >60%)
N#Cc1c(N)nc2sc(C(=O)Nc3ccc(Br)cc3)c(N)c2c1-c1cccs1	X (X = >60%)
COCc1cc(C)nc2sc(C(=O)c3ccc(Cl)cc3)c(N)c12	X (X = >60%)
COCc1cc(C)nc2sc(C(=O)Nc3ccc(NC(C)=O)cc3)c(N)c12	X (X = >60%)
NC(=O)c1sc2nc(C(F)F)cc(-c3ccccc3)c2c1N	X (X = >60%)
COCc1cc(C)nc2sc(C(=O)N3CCOCC3)c(N)c12	Y (Y = 30-60%)
NC(=O)c1sc2nc(-c3ccc(Cl)cc3)cc(-c3ccc(Cl)cc3)c2c1N	X (X = >60%)
NC(=O)c1sc2nc(-c3ccc(F)cc3)cc(-c3ccccc3)c2c1N	X (X = >60%)
COCc1cc(C)nc2sc(C(=O)Nc3cc(C)ccc3F)c(N)c12	X (X = >60%)
CCc1nnc(NC(=O)c2sc3nc(C)cc(COC)c3c2N)s1	X (X = >60%)
NNC(=O)c1sc2ncccc2c1N	X (X = >60%)
N#Cc1c(N)nc2sc(C(=O)Nc3ccccc3)c(N)c2c1-c1cccs1	X (X = >60%)
CC(=O)C1=C(C)Nc2sc(C(N)=O)c(N)c2C1c1ccccc1 (stereo not drawn)	Y (Y = 30-60%)
Cc1ccc2c(N)c(C(N)=O)sc2n1 [drawing 227]	X (X = >60%)
COc1ccc(-c2cc(-c3ccccc3)nc3sc(C(N)=O)c(N)c23)cc1 [drawing 256]	X (X = >60%)
COc1ccc(-c2cc(-c3ccccc3)nc3sc(C(N)=O)c(N)c23)cc1 [drawing 268]	Y (Y = 30-60%)
Cc1ccc2c(N)c(C(N)=O)sc2n1 [drawing 277]	X (X = >60%)

Tested on: not listed separately
Assay: as above
Assay type: cell-based
Settings: human, Tat-hybrid reporter cell lines (HeLa); Table 5; read-out: Tat hybrid TC50
Method: as §1
as §1, with “Tat hybrid reporter assay. […] Previously characterized thienopyridines and diaminoacridine were used as controls. Cells” for “Cells”, “384-well” for “384-well or 96-well”, “lumincescence” for “luminescence”, “assays. […]” for “assays.”

Structure (SMILES)	CC50 at 48 h
NC(=O)c1sc2cncc(N3CCOCC3)c2c1N	< 40 µM
NC(=O)c1cccc(-c2cncc3sc(C(N)=O)c(N)c23)c1	< 40 µM
CN(Cc1cccs1)c1cncc2sc(C(N)=O)c(N)c12	< 40 µM
Cc1cccc(N2CCN(c3cncc4sc(C(N)=O)c(N)c34)CC2)n1	< 40 µM
Cn1cc(CC(=O)N2CCN(c3cncc4sc(C(N)=O)c(N)c34)CC2)c2ccccc21	< 40 µM
NC(=O)c1sc2cncc(N3CCN(c4ccccc4O)CC3)c2c1N	< 40 µM
CC(C)c1n[nH]c2c1CN(c1cncc3sc(C(N)=O)c(N)c13)CC2	< 40 µM
NC(=O)c1sc2cncc(N3CCCC(c4nc5ccccc5o4)C3)c2c1N (stereo not drawn)	< 40 µM
NC(=O)c1sc2cncc(-c3ccncc3)c2c1N	> 40 µM
CN(C=O)c1ccc(C(=O)N2CCN(c3cncc4sc(C(N)=O)c(N)c34)CC2)cc1	< 40 µM
Cc1ccc(C(=O)N2CCN(c3cncc4sc(C(N)=O)c(N)c34)CC2)cn1	< 40 µM
COc1ccc(C(=O)N2CCN(c3cncc4sc(C(N)=O)c(N)c34)CC2)cc1F	< 40 µM
NC(=O)c1sc2cncc(-c3cncc4ccccc34)c2c1N	> 40 µM
NC(=O)c1sc2cncc(-c3cccc(-c4ccccc4)c3)c2c1N	< 40 µM
CC(=O)N1CCN(c2cncc3sc(C(N)=O)cc23)CC1	> 40 µM
CN1CCN(c2cncc3sc(C(N)=O)c(N)c23)CC1	< 40 µM
CS(=O)(=O)c1ccc(C(=O)N2CCN(c3cncc4sc(C(N)=O)c(N)c34)CC2)cc1	< 40 µM
Cc1noc(C)c1C(=O)N1CCN(c2cncc3sc(C(N)=O)c(N)c23)CC1	< 40 µM
COc1cc(C(=O)N2CCN(c3cncc4sc(C(N)=O)c(N)c34)CC2)ccc1C	< 40 µM
NC(=O)c1sc2cncc(-c3cccc4cccnc34)c2c1N	> 40 µM
NC(=O)c1sc2cncc(Cl)c2c1N	< 40 µM

Same assay, conditions: human, Tat-hybrid reporter cell lines (HeLa); Table 6; second 'EC50' entry of the cell, values D/E

Structure (SMILES)	EC50 at 48 h
Cc1cc(C(F)F)nc2sc(C(N)=O)c(N)c12	> 40 µM
Cc1cc(C(F)(F)F)nc2sc(C(N)=O)c(N)c12	> 40 µM
CC(C)c1ccc2nc3sc(C(N)=O)c(N)c3cc2c1	< 40 µM

From patent US10154992B2, “Compounds and methods for treating HIV infection” (THE REGENTS OF THE UNIVERSITY OF CALIFORNIA, priority 2016, dated 2018)
